Test results taken from patent publication US20170145002A1, “DEUTERATED ISOXAZOLE DERIVATIVES AND THEIR USE AS METABOTROPIC GLUTAMATE RECEPTOR POTENTIATORS” (AstraZeneca AB, priority 2015, published 2017).

Legend:
CYP3A4 = CYP3A4 (Homo sapiens, UniProt P08684); test: CYP isoform phenotyping; format: in vitro ADME; settings: for Contribution of CYP3A4 to metabolism (in words): assay conditions of Example 8; for CYP 3A4 (% contribution): recombinant human CYP isozymes, parent disappearance
Method: This assay was used to determine whether Compounds A, B, C and D are metabolised by CYP enzymes.
Solutions (200 μmol/L) of each Compound A, B, C and D as well as of positive controls (phenacetin for CYP1A2, coumarin for CYP2A6, bupropion for CYP2B6, amitriptyline for CYP2C8, 2C19, 2D6 and 3A4, diclofenac for CYP2C9, chlorzoxazone for CYP2E1, midazolam for CYP3A5) were prepared by adding 4 μL of a 10 mmol/L stock solution in DMSO to 196 μL of acetonitrile. The recombinant human CYP isozymes were thawed on wet ice (over an hour). Mixtures (2670 μL) of CYP isozymes in phosphate buffer containing 112.36 nmol/L CYP1A2, 2A6, 2B6, 2C8, 2C9, 2C19, 2D6, 2E1, 3A4 or 3A5 were prepared. The CYP isozyme mixture (222.5 [EL), 25 μL of 10 mmol/L of NADPH solution and 2.5 μL of vehicle control (2: 98 DMSO/acetonitrile) were added to the blank control plate. The resulting mixture was mixed on a whirly mixer for 10 seconds before a stop solution (1000 μL) with internal standard containing 200 nmol/L of 5,5-diethyl-1,3-diphenyl-2-iminobarbituric acid and 100 nmol/L of tolbutamide was added. The blank control plate was sealed with a lid and mixed on whirly mixer for 120 seconds, and kept on ice prior to centrifugation.
The standard samples containing 200 pmol/mL hydroxybupropion and 40 pmol/mL 6-hydroxychlorzoxazone were obtained as follows: the CYP isozyme mixture (222.5 μL) and 25 μL of 10 mmol/L NADPH solution were added to separate wells of the blank control plate. 2.5 μL of a 20 nmol/mL hydroxybupropion solution was added to one well and 2.5 μL of a 4 nmol/mL 6-hydroxychlorzoxazone solution was added to the other well. Mixing was conducted on a whirly mixer for 10 seconds. The stop solution with internal standard (1000 μL) was added to both wells. The blank control plate was sealed with a lid and mixing was conducted on a whirly mixer for 120 seconds. The blank control plate was kept on ice prior to centrifugation.
The CYP isozyme mixtures (222.5 μL) and Compounds A, B, C, D and the positive controls (2.5 μL of each 200 μmol/L solution) were added to the incubation plates. Mixing on a whirly mixer was conducted for 10 seconds. The incubation plate was pre-warmed at 37° C. for 15 minutes. The CYP/compound mixture (27 μL) was transferred from the incubation plate to the 0 minute “Quenching plates” containing 120 μL of the stop solution and 3 μL of a 10 mmol/L NADPH solution. The 0 minute “Quenching plates” was sealed with a lid and kept on ice. Mixing of the 0 minute “Quenching plates” on a whirly mixer was conducted for 120 seconds. The reaction was initiated with the addition of 22 μL of a 10 mmol/L of NADPH solution to the incubation plate. Mixing of the incubation mixture on a whirly mixer was conducted for 10 seconds. The incubation was carried out at 37° C. At 5, 10, 15 and 25 minutes, the incubation mixture was mixed on a whirly mixer for 10 seconds and samples of the incubated mixture (30 μL) were transferred at each time point to wells in a separate “Quenching plate” containing 120 μL of the stop solution, which was sealed with a lid and kept on ice. Mixing on a whirly mixer was conducted for 120 seconds. […]
All calculations are carried out using Microsoft Excel. Peak areas were determined from extracted ion chromatograms. The percentage of parent remaining was calculated from peak area of Compounds A, B, C, D and positive controls. […]

[1] = Metabolic stability and intrinsic clearance in human liver microsomes (HLM); format: in vitro ADME; settings: pooled human liver microsomes, NADPH, 37° C., 0.5-30 minutes; for microsomal CLint at 1 μM: read-out: Human Liver Microsomes Median CLint; for half-life at 1 μM: read-out: Human Liver Microsomes Median t1/2
Method: This assay was used to measure the in vitro metabolic stability of Compounds A, B, C and D of the application in pooled human liver microsomes. The concentration of parent compound in the reaction system for calculating intrinsic clearance of the compounds and estimating their stability in pooled human liver microsomes was evaluated by LC/MS/MS. 100 μmol/L solutions of each Compound A, B, C and D as well as 100 μmol/L solutions of each positive control compound (i.e., phenacetin, verapamil, diclofenac, imiprimine, benzydamine and metoprolol) were prepared by adding 2 μL of 10 mmol/L stock solution in DMSO to 198 μL of acetonitrile. A 1.1236 mg/mL HLM mixture was prepared by adding 1325 μL of 20 mg/mL HLM to 22260 μL of phosphate buffer. The HLM mixture (222.5 μL of the 1.1236 mg/mL mixture) and 25 μL of a 10 mM NADPH solution were added to the incubation plates. After mixing on a whirly mixer for 10 seconds, the incubation plates were pre-warmed at 37° C. for 8 minutes. The solutions of Compounds A, B, C and D (2.5 μL of the 100 μM solutions prepared before) as well as positive control solutions (2.5 μL of the 100 μM solutions prepared before) were added to the incubation plate. The incubation mixture was mixed on a whirly mixer for 10 seconds and incubation was carried out at 37° C. The reaction was quenched by transferring 20 μL of the incubated mixture at 0.5, 5, 10, 15, 20 and 30 minutes into the quenching plate containing 100 μL of cold acetonitrile. The quenching plates at 4000 rpm were centrifuged for 20 minutes, placed at 4 ° C. for 30 minutes, then re-centrifuged at 4000 rpm for 20 minutes to precipitate protein. The supernatant of each compound (40 μL) was transferred into a 96-well analysis plate. Compounds A, B, C and D were pooled together into one cassette, and pure water (160 μL) was added in each well. All incubations were performed in singlicate. API 4000 (AB sciex, USA) Ultra mass spectrometer was used to carry out the samples analysis in the MRM mode (MS/MS). Peak areas were determined from extracted ion chromatograms. Percentage of parent compound remaining was calculated from peak area of each compound or positive control. The slope value, k, was determined by linear regression of the natural logarithm of percent parent remaining vs. incubation time curve.
All calculations were carried out using Microsoft Excel. The in vitro half-life (in vitro t1/2) was determined from the slope value, wherein in vitro t1/2=−(0.693/k). Conversion of the in vitrot1/2 (in min) into the in vitro intrinsic clearance (in vitro CLint, in μL/min/mg proteins) was done by using the following equation:
in vitro CLint=(0.693/t1/2)*(volume of incubation (μL)/amount of proteins (mg)).

Sequence of CYP3A4 (P08684 whole entry, canonical isoform): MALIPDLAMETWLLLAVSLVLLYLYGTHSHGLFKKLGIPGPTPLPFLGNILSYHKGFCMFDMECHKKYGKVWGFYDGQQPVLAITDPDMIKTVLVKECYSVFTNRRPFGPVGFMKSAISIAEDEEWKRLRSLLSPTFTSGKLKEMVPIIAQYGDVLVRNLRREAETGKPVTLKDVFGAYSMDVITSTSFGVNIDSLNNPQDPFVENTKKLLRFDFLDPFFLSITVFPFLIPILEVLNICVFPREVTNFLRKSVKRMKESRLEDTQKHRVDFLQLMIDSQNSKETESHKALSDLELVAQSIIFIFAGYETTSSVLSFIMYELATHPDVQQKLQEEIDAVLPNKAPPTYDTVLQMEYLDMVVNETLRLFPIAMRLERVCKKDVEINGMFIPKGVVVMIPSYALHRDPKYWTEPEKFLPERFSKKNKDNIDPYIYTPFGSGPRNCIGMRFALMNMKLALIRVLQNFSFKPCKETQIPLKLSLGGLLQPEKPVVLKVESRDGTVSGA

| Contribution of CYP3A4 to metabolism (in words) (CYP3A4) | CYP 3A4 (% contribution) (CYP3A4) | microsomal CLint at 1 μM [1] | half-life at 1 μM [1] | Compound |
| --- | --- | --- | --- | --- |
| metabolized predominately by CYP3A4 | 100% | 9.5 µL/min/mg | 1.22 h | C[C@@H](C1CC1)N1Cc2cc(-c3cc(C(=O)N4CCOCC4)no3)cc(Cl)c2C1=O [Compound D, (S)-7-chloro-2-(1-cyclopropylethyl)-5-(3-(morpholine-4-carbonyl)isoxazol-5-yl)isoindolin-1-one, reference compound] |
| – | 99.7% | 7 µL/min/mg | 1.66 h | [2H]C1([2H])COCC([2H])([2H])N1C(=O)c1cc(-c2cc(Cl)c3c(c2)CN([C@@H](C)C2CC2)C3=O)on1 [Compound C, (S)-7-chloro-2-(1-cyclopropylethyl)-5-(3-(morpholine-4-carbonyl-3,3,5,5-d4)isoxazol-5-yl)isoindolin-1-one] |
| no measureable contribution | – | < 3 µL/min/mg | > 3.85 h | [2H]C1([2H])OC([2H])([2H])C([2H])([2H])N(C(=O)c2cc(-c3cc(Cl)c4c(c3)CN([C@@H](C)C3CC3)C4=O)on2)C1([2H])[2H] [Compound A, (S)-7-chloro-2-(1-cyclopropylethyl)-5-(3-(morpholine-4-carbonyl-2,2,3,3,5,5,6,6-d8)isoxazol-5-yl)isoindolin-1-one] |
| – | 82.3% | 9.5 µL/min/mg | 1.22 h | [2H]C1([2H])CN(C(=O)c2cc(-c3cc(Cl)c4c(c3)CN([C@@H](C)C3CC3)C4=O)on2)CC([2H])([2H])O1 [Compound B, (S)-7-chloro-2-(1-cyclopropylethyl)-5-(3-(morpholine-4-carbonyl-2,2,6,6-d4)isoxazol-5-yl)isoindolin-1-one] |
